Experiment [1] has as its target Tyrosine-protein kinase JAK2 (Homo sapiens, UniProt O60674). The experiment can be described thus: Inhibition of JAK2 (unknown origin) in presence of ATP at Km concentration by caliper assay.
The target in experiment [2] is Tyrosine-protein kinase JAK1 (Homo sapiens, UniProt P23458). The experiment can be described thus: Inhibition of JAK1 (unknown origin) in presence of ATP at Km concentration by caliper assay.
For experiment [3], the target named is T1, Tyrosine-protein kinase JAK3 (Homo sapiens, UniProt P52333).
T1 sequence (P52333 whole entry): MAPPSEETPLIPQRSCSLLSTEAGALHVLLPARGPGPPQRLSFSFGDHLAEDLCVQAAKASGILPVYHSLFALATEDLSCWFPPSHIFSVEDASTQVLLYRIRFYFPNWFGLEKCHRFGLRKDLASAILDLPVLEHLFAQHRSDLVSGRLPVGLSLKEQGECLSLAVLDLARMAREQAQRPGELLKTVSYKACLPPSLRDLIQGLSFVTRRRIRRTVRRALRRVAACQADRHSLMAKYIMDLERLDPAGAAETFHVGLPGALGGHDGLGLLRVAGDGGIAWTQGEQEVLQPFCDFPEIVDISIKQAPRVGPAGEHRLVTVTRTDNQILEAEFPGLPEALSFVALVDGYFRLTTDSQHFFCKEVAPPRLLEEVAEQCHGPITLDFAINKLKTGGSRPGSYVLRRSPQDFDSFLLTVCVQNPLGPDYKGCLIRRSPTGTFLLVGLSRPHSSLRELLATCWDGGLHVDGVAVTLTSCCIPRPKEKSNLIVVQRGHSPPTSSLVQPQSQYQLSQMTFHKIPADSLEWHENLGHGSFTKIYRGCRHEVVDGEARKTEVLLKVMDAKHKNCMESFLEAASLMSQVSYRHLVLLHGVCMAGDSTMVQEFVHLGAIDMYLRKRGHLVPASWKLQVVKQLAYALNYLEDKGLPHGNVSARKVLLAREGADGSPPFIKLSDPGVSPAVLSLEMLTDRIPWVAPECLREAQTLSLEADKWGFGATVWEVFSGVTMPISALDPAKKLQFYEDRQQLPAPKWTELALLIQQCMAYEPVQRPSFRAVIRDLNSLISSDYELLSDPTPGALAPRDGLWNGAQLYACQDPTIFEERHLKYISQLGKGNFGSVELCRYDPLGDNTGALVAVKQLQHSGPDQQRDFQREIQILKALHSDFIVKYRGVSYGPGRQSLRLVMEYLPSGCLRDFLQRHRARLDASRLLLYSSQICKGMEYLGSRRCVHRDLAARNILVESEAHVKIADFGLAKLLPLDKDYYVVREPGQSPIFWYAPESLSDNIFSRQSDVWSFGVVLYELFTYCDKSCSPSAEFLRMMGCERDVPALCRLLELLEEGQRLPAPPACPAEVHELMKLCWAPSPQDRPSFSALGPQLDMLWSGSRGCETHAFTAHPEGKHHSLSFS
The experiment can be described thus: Inhibition of JAK3 (unknown origin) in presence of ATP at Km concentration by caliper assay.

Tyrosine-protein kinase JAK1, sequence (P23458 whole entry): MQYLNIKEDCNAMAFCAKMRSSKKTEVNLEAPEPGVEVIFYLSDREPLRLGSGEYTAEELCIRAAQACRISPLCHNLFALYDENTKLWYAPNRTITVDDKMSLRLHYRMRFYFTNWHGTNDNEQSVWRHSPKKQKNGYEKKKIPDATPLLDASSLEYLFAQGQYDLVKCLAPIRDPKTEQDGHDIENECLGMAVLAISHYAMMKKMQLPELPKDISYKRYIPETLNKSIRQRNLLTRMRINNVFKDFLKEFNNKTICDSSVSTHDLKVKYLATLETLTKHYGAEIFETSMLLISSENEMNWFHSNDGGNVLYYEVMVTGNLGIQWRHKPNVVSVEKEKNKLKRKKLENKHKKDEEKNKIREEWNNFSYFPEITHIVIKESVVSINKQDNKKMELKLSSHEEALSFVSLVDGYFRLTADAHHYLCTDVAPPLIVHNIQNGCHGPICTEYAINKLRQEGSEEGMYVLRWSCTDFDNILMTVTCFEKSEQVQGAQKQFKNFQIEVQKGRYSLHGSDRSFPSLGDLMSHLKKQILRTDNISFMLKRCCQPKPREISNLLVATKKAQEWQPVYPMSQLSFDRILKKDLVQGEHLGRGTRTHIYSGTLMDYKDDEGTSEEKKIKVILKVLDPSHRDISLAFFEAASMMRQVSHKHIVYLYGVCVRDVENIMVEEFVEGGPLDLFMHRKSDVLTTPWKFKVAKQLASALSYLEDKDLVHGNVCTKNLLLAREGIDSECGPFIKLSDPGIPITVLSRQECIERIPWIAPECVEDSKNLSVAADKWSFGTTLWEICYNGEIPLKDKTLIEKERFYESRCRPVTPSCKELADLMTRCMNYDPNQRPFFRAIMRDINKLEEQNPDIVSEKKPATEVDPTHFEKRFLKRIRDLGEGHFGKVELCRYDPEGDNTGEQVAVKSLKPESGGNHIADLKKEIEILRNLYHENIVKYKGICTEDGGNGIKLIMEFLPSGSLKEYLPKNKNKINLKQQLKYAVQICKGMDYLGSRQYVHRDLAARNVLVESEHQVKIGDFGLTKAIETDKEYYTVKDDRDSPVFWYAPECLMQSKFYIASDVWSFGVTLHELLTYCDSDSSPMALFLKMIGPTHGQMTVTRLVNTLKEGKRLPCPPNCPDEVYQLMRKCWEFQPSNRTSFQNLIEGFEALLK
Tyrosine-protein kinase JAK2, sequence (O60674 whole entry): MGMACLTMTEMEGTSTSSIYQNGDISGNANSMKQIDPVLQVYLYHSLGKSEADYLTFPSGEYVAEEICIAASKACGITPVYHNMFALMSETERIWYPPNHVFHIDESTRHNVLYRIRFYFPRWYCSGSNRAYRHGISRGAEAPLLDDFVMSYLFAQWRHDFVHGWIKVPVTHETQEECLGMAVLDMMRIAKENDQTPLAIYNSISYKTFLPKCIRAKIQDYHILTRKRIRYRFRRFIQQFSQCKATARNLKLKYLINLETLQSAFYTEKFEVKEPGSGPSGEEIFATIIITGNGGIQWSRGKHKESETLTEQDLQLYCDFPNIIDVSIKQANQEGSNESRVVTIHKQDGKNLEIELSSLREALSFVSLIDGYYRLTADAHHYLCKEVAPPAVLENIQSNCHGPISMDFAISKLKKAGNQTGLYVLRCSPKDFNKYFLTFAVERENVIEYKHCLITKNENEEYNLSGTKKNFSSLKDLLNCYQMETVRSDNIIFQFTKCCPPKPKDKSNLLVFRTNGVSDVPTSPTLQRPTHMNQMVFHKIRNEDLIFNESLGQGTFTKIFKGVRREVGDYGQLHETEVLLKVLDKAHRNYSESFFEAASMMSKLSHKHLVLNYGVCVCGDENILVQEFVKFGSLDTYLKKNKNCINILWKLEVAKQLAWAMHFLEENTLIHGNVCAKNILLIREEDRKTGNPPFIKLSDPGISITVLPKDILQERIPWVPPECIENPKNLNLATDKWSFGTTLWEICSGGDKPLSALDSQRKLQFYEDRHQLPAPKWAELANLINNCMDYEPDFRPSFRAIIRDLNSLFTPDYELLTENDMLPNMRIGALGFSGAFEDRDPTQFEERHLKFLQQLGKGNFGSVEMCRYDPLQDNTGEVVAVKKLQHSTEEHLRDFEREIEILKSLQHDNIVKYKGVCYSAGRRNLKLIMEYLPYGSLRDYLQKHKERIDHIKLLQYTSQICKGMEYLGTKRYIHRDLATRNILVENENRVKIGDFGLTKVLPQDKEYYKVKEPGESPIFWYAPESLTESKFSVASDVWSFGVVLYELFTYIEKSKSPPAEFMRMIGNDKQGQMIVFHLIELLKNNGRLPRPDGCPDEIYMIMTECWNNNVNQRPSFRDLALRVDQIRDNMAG

One may read the IC50 as the concentration needed to halve the response being measured. As for `N#CCNC(=O)c1ccc(-c2cccc3nc(NC(=O)C4CC4)nn23)cc1`, the half-maximal inhibitory concentration (IC50) in experiment [1] was 299 nM.
`N#CCNC(=O)N1CC=C(c2cccc3nc(NC(=O)C4CC4)nn23)CC1`: the half-maximal inhibitory concentration (IC50) in experiment [1] worked out at 175 nM.
For `N#CC1(C(=O)N2CC=C(c3cccc4nc(NC(=O)C5CC5)nn34)CC2)CC1`, the IC50 in experiment [1] was 441 nM.
`C=C(C#N)C(O)c1ccc(-c2cccc3nc(NC(=O)C4CC4)nn23)cc1` (configuration not stated): the half-inhibitory concentration (IC50) in experiment [1] is 55 nM.
Consider `O=C(Nc1nc2cccc(-c3ccc(C(=O)N4CC(F)(F)C4)cc3)n2n1)C1CC1`, for which the concentration for half-maximal inhibition (IC50) is 124 nM in experiment [2], 941 nM in experiment [3] and 139 nM in experiment [1].
As to `O=C(NCC(F)(F)F)c1ccc(-c2cccc3nc(NC(=O)C4CC4)nn23)cc1`, the IC50 turned out to be 230 nM in experiment [2], 1020 nM in experiment [3] and 214 nM in experiment [1].
As to `C=CC(=O)N1CC=C(c2cccc3nc(NC(=O)C4CC4)nn23)CC1`, the half-inhibitory concentration (IC50) in experiment [1] turned out to be 424 nM.
Consider `O=C(Nc1nc2cccc(C3=CCN(C(=O)C4CC4(F)F)CC3)n2n1)C1CC1` (configuration not stated), for which the half-maximal inhibitory concentration (IC50) in experiment [1] was found to be 192 nM.
Consider `N#CCC(=O)N1CC=C(c2cccc3nc(NC(=O)C4CC4)nn23)CC1`, for which the IC50 in experiment [1] was 157 nM.
`O=C(Nc1nc2cccc(C3=CCN(C(=O)NCC(F)(F)F)CC3)n2n1)C1CC1`: the IC50 in experiment [2] was found to be 234 nM; in experiment [3], 1740 nM; in experiment [1], 347 nM.
On to `O=C(Nc1nc2cccc(C3=CCN(C(=O)C4(C(F)(F)F)CC4)CC3)n2n1)C1CC1`, for which, in experiment [1], the IC50 is 317 nM.

The record behind these values is ChEMBL document CHEMBL4622902, “Discovery of triazolo [1,5-a] pyridine derivatives as novel JAK1/2 inhibitors” (Bioorg Med Chem Lett, 2020).
